Laboratory results: PubChem BioAssay (NCI)
Values joined by “and” are separate entries in the source; they are usually repeats but may differ in a detail not shown here. Equal values may be shown once.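 Step 1: Grow cells in 96-well plates. Step 2: Expose to compound for 48 hours at 5 concentrations. Step 3: Interpolate endpoints linearly; if unreached, use highest concentration. Abbreviation: GI50, concentration required for 50% inhibition of growth. Definition used: TGI = concentration required for complete inhibition of growth.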

How the values were obtained:
Assay in all cases: inhibition of tumour cell growth, NCI panel, 48 h
DU-145 prostate = system: DU-145 prostate
OVCAR-3 ovarian = system: OVCAR-3 ovarian
NCI-H460 lung = system: NCI-H460 lung
CCRF-CEM leukemia = system: CCRF-CEM leukemia
UACC-257 melanoma = system: UACC-257 melanoma
SW-620 colon = system: SW-620 colon
SNB-19 CNS = system: SNB-19 CNS
NCI-H226 lung = system: NCI-H226 lung
NCI/ADR-RES ovarian = system: NCI/ADR-RES ovarian
786-0 renal = system: 786-0 renal

Row | Compound | GI50 (DU-145 prostate) | TGI (DU-145 prostate) [µM] | GI50 (OVCAR-3 ovarian) | TGI (OVCAR-3 ovarian) [µM] | GI50 (NCI-H460 lung) [µM] | TGI (NCI-H460 lung) [µM] | GI50 (CCRF-CEM leukemia) | TGI (UACC-257 melanoma) [µM] | GI50 (SW-620 colon) [µM] | TGI (SW-620 colon) [µM] | GI50 (SNB-19 CNS) [µM] | TGI (SNB-19 CNS) [µM] | GI50 (NCI-H226 lung) [µM] | TGI (NCI-H226 lung) [µM] | GI50 (NCI/ADR-RES ovarian) | TGI (NCI/ADR-RES ovarian) [µM] | GI50 (786-0 renal) | TGI (786-0 renal) [µM] | TGI (CCRF-CEM leukemia) | GI50 (UACC-257 melanoma)
1 | COc1nc(N)nc2c1ncn2C1OC(CO)C(O)C1O (centres undefined) | > 5000 µM | > 5000 | > 5000 µM | > 5000 | 1650 | > 5000 | 8.46 µM | > 5000 | > 5000 | > 5000 | > 5000 | > 5000 | > 5000 | > 5000 | > 5000 µM | > 5000 | > 5000 µM | > 5000 |  | 
2 | O=C1C=CC(=O)c2cc(Sc3ccccc3)c(=O)ccc21 |  | 31.5 |  | 43.2 |  | 47.6 |  | 33.6 |  | 11.7 |  | 38.1 |  | 42.9 |  | 42.1 |  | 31.9 | 9.43 µM | 
3 | COc1ccc(-c2c3c(n(C4OC(COC(C)=O)C(OC(C)=O)C(OC(C)=O)C4OC(C)=O)c(=S)c2C#N)CC(C)(C)CC3=O)cc1 (centres undefined) | 46.8 µM and > 100 µM | > 100 | 40.5 µM and 88.7 µM | > 100 |  | > 100 | 21.5 µM and 71.7 µM | > 100 |  | > 100 |  | > 100 |  | > 100 | 41.6 µM and > 100 µM | > 100 | 36.3 µM and > 100 µM | > 100 | 57.2 µM and > 100 µM | 27.9 µM and > 100 µM
4 | Cc1cc(CC(C)CC(C)(C)C)n(O)c(=O)c1 (centres undefined) (tested in a mixture with another compound) | 0.505 µM | > 41.3 | 0.745 µM | 18.6 | 0.331 | 10.9 | 0.261 µM | > 100 | 0.478 | > 81.1 | 0.519 | > 100 | 0.435 | 10.4 | 0.373 µM | 4.02 | 1.8 µM | 5.7 | 1.3 µM | 0.507 µM
5 | COc1cccc(C2c3cc4c(cc3OC(N3CCCC3)C2C)OCO4)c1O (centres undefined) |  | > 36.9 |  | 8.02 |  | 32.4 |  | 40.3 |  | > 100 |  | > 100 |  | 35.6 |  | 47.1 |  | > 100 | > 100 µM | 
6 | O=C(O)C(Cl)(c1ccccc1)c1ccccc1 |  | > 100 |  | > 100 |  | > 100 |  | > 100 |  | > 100 |  | > 100 |  | > 100 |  | > 100 |  | > 100 | > 100 µM | 
7 | O=C(OCc1ncc(-c2ccc(C(F)(F)F)cc2)c(NC2CCCCCC2)n1)c1c(F)c(F)c(F)c(F)c1F | 12.5 µM | 25.3 | 4.09 µM | 13.8 | 17.3 | 40.1 | 1.83 µM | 35 | 7.21 | 26.6 | 14.1 | 27.7 | 5.59 | 21.2 | 21.2 µM | 55.5 | 11.4 µM | 27.2 | 7.02 µM | 17.5 µM
8 | Cc1cc(N2CCSCC2)nc(NC2CCCC(Nc3ccnc4cc(Cl)ccc34)C2)n1 (centres undefined) | 3.13 µM | 12.5 | 1.84 µM | 3.72 | 1.97 | 4.13 | 2.62 µM | 4.13 | 1.83 | 3.77 | 3.26 | 11.5 | 3.2 | 11 | 2.01 µM | 5.15 | 1.52 µM | 2.92 | 10.9 µM | 2.14 µM
9 | CC(C)(C)CC(C)(C)NCc1cc(C(C)(C)C)cc(CNC(C)(C)CC(C)(C)C)c1O | 6.07 µM | 18.5 | 2.59 µM | 7 | 3.49 | 12.9 | 4.18 µM | 6.52 | 2.79 | 12.4 | 5.24 | 17.8 | 2.25 | 8.89 | 2.81 µM | 11.7 | 3.85 µM | 14.4 | 34.9 µM | 2.21 µM
10 | Cc1cc(C)c(NC(=S)NC(=O)c2ccccc2)cc1C |  | > 100 |  | > 100 |  | > 100 |  | > 100 |  | > 100 |  | > 100 |  | > 100 |  | > 100 |  | > 100 | > 100 µM | 
11 | OCC(O)c1nc2ccc3[nH]ncc3c2c2c1CCCC2 (centres undefined) | 1.59 µM | > 50 | 1.67 µM | > 50 | 1.49 | 5.43 | 1.62 µM | > 50 | 1.3 | > 50 | 1.58 | > 50 | 0.971 | 2.83 | 1.34 µM | 4.51 | 1.77 µM | > 50 | > 50 µM | 1.8 µM
12 | COC(=O)Cc1ccc(Oc2cnc3cc(F)c(F)cc3n2)cc1 | > 100 µM | > 100 | 93.3 µM | > 100 | > 100 | > 100 | 44.2 µM | > 100 | > 100 | > 100 | > 100 | > 100 | 52.9 | > 100 | 23.8 µM | 81.1 | > 100 µM | > 100 | > 100 µM | > 100 µM
